This is an account of results in patent publication US12064517B1, “Polymer nanoparticle” (priority 2018, dated 2024).

The term IC50 denotes the concentration at which inhibition is half-maximal.

The test system of data set [1] is Human Lung Carcinoma A549. Briefly: Cell Titer-Glo Luminescent Cell Viability assay, antiproliferative activity, A549. The note with it: A549 cell line, 72 hours culture with test article, highest concentration 0.4 μM. It counts as cell-based. Here is the method: (§1) The antiproliferative activity was studied against human tumor cell lines, Human Lung Carcinoma A549 and Human Mammary Gland Adenocarcinoma MCF-7 with Promega's Cell Tier-Glo® Luminescent Cell Viability assay.
(§2) A preliminary cell titration was conducted to select the proper seeding density for the growth of these lines for the relevant time frames.
(§3) The tumor cells were seeded in a volume of 90 μL/well of growth medium into a white polystyrene 96-well microculture plate (Corning® Costar® 96-well flat bottom plate, Cat #3917). After 24 hours of incubation in a humidified incubator at 37° C., in an atmosphere of 5% CO2 and 95% air, 10 μL of 10 serially diluted test agent in growth medium were added to each well in duplicate (10 points dose response, highest concentration 0.4 μM, with a 1:2 dilution plus untreated control). After 72 hours of culture with test article, in a humidified incubator at the atmosphere of 5% CO2 and 95% air, the plate cells and Cell Titer-Glo® (Promega G7571) reagents were brought to room temperature to equilibrate for 30 minutes. 100 μL of Cell Titer-Glo® (Promega G7571) reagent was added to each well. The plates were shaken for two minutes and then left to equilibrate for ten minutes prior to reading luminescence on the Biotech Synergy II microplate reader. The IC50 results are listed in the following tables and are shown in graphs in FIG. 5 and FIG. 6.

The subject of data set [2] is Human Mammary Gland Adenocarcinoma MCF-7. Briefly: Cell Titer-Glo Luminescent Cell Viability assay, antiproliferative activity, MCF-7. The data set is classed as cell-based. The note with it: MCF7, MCF-7 cell line, 72 hours culture with test article, highest concentration 0.4 μM. Here is the method: as §1, §2, §3
(In general: In ATP-based viability assays light output follows the ATP content of the culture.)

Data set [3] can be described thus: Encapsulation of purpurin dye in nanogel, aqueous dispersion. It counts as physicochemical. The note with it: 2 mg purpurin, 6 mg PEG diacrylate (MW 1000) β-cyclodextrin crosslinked nanogel, 3 ml di water, stirring overnight. How it is done: 6 mg of PEG diacrylate (MW 1000) β-cyclodextrin crosslinked nanogel was dispersed in 3 ml of di water, 2 mg of purpurin solid was added to the solution. The resulted mixture was stirring overnight.

The conditions of data set [4]: native cyclodextrin; cited from earlier work.

For the compound `CC(=O)O[C@H]1C(=O)[C@@]2(C)[C@H]([C@H](OC(=O)c3ccccc3)[C@]3(O)C[C@H](OC(=O)[C@H](O)[C@@H](NC(=O)c4ccccc4)c4ccccc4)C(C)=C1C3(C)C)[C@]1(OC(C)=O)CO[C@@H]1C[C@@H]2O` [Paclitaxel Control, paclitaxel], the IC50 in data set [1] turned out to be 5.98 nM; in data set [2], 1.06 nM. As for `O=C1c2ccccc2C(=O)c2c(O)c(O)cc(O)c21` [purpurin], the “Aqueous dispersion of purpurin with nanogel” value in data set [3] is listed as “dispersed in the aqueous as a transparent colloidal solution”. In the case of `OC[C@H]1O[C@@H]2O[C@H]3[C@H](O)[C@@H](O)[C@@H](O[C@H]4[C@H](O)[C@@H](O)[C@@H](O[C@H]5[C@H](O)[C@@H](O)[C@@H](O[C@H]6[C@H](O)[C@@H](O)[C@@H](O[C@H]7[C@H](O)[C@@H](O)[C@@H](O[C@H]1[C@H](O)[C@H]2O)O[C@@H]7CO)O[C@@H]6CO)O[C@@H]5CO)O[C@@H]4CO)O[C@@H]3CO` [α-cyclodextrin], the solubility in data set [4] is recorded as 129.5 g/kg.
